Source: publication PMC11945486, “TAS1R2/TAS1R3 Single-Nucleotide Polymorphisms Affect Sweet Taste Receptor Activation by Sweeteners: The SWEET Project” (Nutrients, 2025)
No end group written: not given here.

T1: human TAS1R2-C9S/TAS1R3-WT (Homo sapiens, UniProt Q7RTX0+Q8TE23)
T1 construct: expressed in transfected cells; host or cells: HEK293T-Gα16gust44
T1 sequence (Q8TE23 20-839): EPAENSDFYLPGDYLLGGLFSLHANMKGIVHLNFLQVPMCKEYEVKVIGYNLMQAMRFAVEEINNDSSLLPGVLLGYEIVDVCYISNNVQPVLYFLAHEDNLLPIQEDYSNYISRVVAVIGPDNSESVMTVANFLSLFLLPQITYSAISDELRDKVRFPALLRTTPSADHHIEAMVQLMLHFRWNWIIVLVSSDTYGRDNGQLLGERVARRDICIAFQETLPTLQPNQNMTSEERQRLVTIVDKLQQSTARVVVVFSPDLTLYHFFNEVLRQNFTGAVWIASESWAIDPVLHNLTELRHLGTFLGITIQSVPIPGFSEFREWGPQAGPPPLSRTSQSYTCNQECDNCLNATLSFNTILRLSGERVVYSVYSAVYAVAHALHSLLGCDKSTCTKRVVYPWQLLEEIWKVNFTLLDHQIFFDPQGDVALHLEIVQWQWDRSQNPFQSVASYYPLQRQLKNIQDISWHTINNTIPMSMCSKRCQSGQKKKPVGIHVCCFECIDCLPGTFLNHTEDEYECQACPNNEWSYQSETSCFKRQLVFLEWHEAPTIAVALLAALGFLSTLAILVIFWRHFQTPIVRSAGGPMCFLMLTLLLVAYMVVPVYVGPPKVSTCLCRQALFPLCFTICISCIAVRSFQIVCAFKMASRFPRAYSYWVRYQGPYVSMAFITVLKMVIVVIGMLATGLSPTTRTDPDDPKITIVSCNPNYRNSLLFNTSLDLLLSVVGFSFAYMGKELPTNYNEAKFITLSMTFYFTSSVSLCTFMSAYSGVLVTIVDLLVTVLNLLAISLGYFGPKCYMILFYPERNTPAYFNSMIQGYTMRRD
T1 sequence (Q7RTX0 21-852): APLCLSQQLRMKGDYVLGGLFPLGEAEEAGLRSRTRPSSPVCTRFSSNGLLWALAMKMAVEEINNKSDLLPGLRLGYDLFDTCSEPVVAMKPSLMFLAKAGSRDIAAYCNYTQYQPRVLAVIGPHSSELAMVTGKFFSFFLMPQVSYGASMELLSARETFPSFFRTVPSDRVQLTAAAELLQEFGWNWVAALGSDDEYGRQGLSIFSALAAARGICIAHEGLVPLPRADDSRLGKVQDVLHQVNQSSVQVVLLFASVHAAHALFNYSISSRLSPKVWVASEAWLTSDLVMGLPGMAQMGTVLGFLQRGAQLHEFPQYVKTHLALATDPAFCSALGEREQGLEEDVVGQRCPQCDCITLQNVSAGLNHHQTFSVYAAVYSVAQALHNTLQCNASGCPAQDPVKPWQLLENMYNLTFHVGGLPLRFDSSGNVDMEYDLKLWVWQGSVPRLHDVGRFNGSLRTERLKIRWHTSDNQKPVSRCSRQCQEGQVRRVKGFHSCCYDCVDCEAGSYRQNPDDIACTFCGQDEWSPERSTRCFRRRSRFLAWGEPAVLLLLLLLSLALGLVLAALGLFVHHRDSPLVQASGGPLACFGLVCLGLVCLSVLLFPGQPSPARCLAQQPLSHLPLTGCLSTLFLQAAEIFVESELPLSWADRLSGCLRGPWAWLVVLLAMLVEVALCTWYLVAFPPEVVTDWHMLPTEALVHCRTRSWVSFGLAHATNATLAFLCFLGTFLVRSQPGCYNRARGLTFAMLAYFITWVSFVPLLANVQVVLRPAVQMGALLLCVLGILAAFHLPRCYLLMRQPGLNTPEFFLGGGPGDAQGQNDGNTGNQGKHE


Target: T1, human TAS1R2-C9S/TAS1R3-WT
Assay: Calcium mobilisation assay, TAS1R2 variant C9S with TAS1R3-WT
Assay type: cell-based
Conditions: for Max ΔF/F0: maximal signal amplitude
From the text: The coding sequences for TAS1R2 and TAS1R3 were commercially synthesised, and the human codon was optimised for expression in human cells. The coding sequences of human TAS1R2 and TAS1R3 were subcloned and inserted into the mammalian expression vectors pcDNA6/myc-HisA and pcDNA4/myc-HisA (Invitrogen; Thermo Fisher Scientific; Illkirch, France) between the EcoRI and NotI restriction sites, generating the plasmids pcDNA6-TAS1R2 and pcDNA4-TAS1R3, respectively. To increase protein expression in mammalian cells, an upstream start codon was used, which was a sequence called MAX, corresponding to the QBI SP163 element also described in pcDNA4-HisMax (Invitrogen; Thermo Fisher Scientific; Illkirch, France). To measure the expression level of the receptor by immunohistochemistry, we used the FLAG sequence ([…]) in the C-terminal position, which encodes the FLAG tag epitope. SNP variants of TAS1R2 and TAS1R3 were constructed based on […], respectively, using site-directed mutagenesis (Genewiz; Leipzig, Germany).
The HEK293T cells were kindly provided by Jay P. Slack (Givaudan Flavors Corporation; Cincinnati, OH, USA). HEK293T cells stably transfected with Gα16gust44 [43, 67] were seeded in poly-D-lysine-coated clear-bottom black 96-well plates (0.35 × 10^5 cells/well) in high-glucose DMEM supplemented with 2 mM GlutaMAX, 10% dialysed foetal bovine serum with penicillin/streptomycin and G418 (400 μg/mL) at 37 °C and 6.3% CO2 in a humidified atmosphere as previously reported. […] As a negative control, HEK293T cells were mock-transfected with the empty expression vector. After a further 24 h of incubation, the HEK293T cells were washed with C1 buffer (130 mM NaCl, 5 mM KCl, 10 mM HEPES pH 7.4 and 2 mM CaCl2). The 96-well plates containing the cells were then stimulated with sweet-tasting compounds. […] Different concentration ranges were tested depending on the sweet compound injected. The Ca^2+ changes were expressed as fractional changes in fluorescent light intensity: ΔF/F = (F − F0)/F0, where F was the fluorescent light intensity at each point, and F0 was the value of emitted fluorescent light prior to stimulus application. To calculate dose–response relationships, the changes in fluorescence upon stimulus application were averaged, mock-subtracted and baseline-corrected. The dose–response data obtained were adjusted using a 4-parameter logistic equation. The half-maximal effective concentrations (EC50 values) and maximal signal amplitudes were calculated using SigmaPlot software (version 15.0) (Systat Software; San Jose, CA, USA).
For in vitro calcium mobilisation assay performed on hTAS1R2-SNPs, hTAS1R3-SNPs and mTAS1R3-I60T, 6 to 7 concentrations were tested for each sweet compound, plus buffer alone. All concentration–receptor combinations were measured in duplicate, and each experiment was repeated at least 4 times (8 wells/concentration). Results were expressed for each concentration as ΔF/F mean ± SEM and represented as dose–response curves.

| Molecule | EC50 [µM] | R1 = Variant EC50/WT EC50 | Max ΔF/F0 |
| --- | --- | --- | --- |
| CC1=CC(=O)NS(=O)(=O)O1 [Acesulfame K, acesulfame K] | 466 ± 54 | 0.7 | 0.32 ± 0.01 |
| O=S(=O)(O)NC1CCCCC1 [Cyclamate, cyclamate] | 1810 ± 55 | – | – |
| C[C@H](CC[C@@H](O[C@@H]1O[C@H](CO[C@@H]2O[C@H](CO)[C@@H](O)[C@H](O)[C@H]2O)[C@@H](O)[C@H](O)[C@H]1O[C@@H]1O[C@H](CO)[C@@H](O)[C@H](O)[C@H]1O)C(C)(C)O)[C@H]1CC[C@@]2(C)[C@@H]3CC=C4[C@@H](CC[C@H](O[C@@H]5O[C@H](CO[C@@H]6O[C@H](CO)[C@@H](O)[C@H](O)[C@H]6O)[C@@H](O)[C@H](O)[C@H]5O)C4(C)C)[C@]3(C)[C@H](O)C[C@]12C [Mogroside V, mogroside V] | 18.6 ± 1.6 | 1.1 | 1.32 ± 0.04 |
| COc1ccc(CCC(=O)c2c(O)cc(O[C@@H]3O[C@H](CO)[C@@H](O)[C@H](O)[C@H]3O[C@@H]3O[C@@H](C)[C@H](O)[C@@H](O)[C@H]3O)cc2O)cc1O [NHDC, neohesperidin dihydrochalcone] | 99 ± 5.2 | 1.3 | 0.83 ± 0.02 |
| COC(=O)[C@H](Cc1ccccc1)NC(=O)[C@H](CC(=O)O)NCCC(C)(C)C [Neotame] | 0.85 ± 0.16 | 1.0 | 0.66 ± 0.04 |
| C=C(C)[C@@H]1CC=C(/C=N/O)CC1 [Perillartine, perillartine] | 17.8 ± 1.2 | 1.0 | 1.29 ± 0.03 |
| C=C1C[C@@]23CC[C@H]4[C@@](C)(CCC[C@@]4(C)C(=O)O[C@@H]4O[C@H](CO)[C@@H](O)[C@H](O[C@@H]5O[C@H](CO)[C@@H](O)[C@H](O)[C@H]5O)[C@H]4O[C@@H]4O[C@H](CO)[C@@H](O)[C@H](O)[C@H]4O)[C@@H]2CC[C@]1(O[C@@H]1O[C@H](CO)[C@@H](O)[C@H](O[C@@H]2O[C@H](CO)[C@@H](O)[C@H](O)[C@H]2O)[C@H]1O[C@@H]1O[C@H](CO)[C@@H](O)[C@H](O)[C@H]1O)C3 [Rebaudioside M, rebaudioside M] | 23.7 ± 1.6 | 1.4 | 1.18 ± 0.03 |
| OC[C@H]1O[C@H](O[C@]2(CCl)O[C@H](CCl)[C@@H](O)[C@@H]2O)[C@H](O)[C@@H](O)[C@H]1Cl [Sucralose] | 88 ± 15 | 1.0 | 0.72 ± 0.05 |
| brazzein (QDKCKKVYENYPVSKCQLANQCNYDCKLDKHARSGECFYDEKRNLQCICDYCEY; ends and bridges not checked; cysteine pairing not given here; UniProt P56552 1-54, looked up) [sweet-tasting protein obtained by recombinant production using the yeast Pichia pastoris] | – | 1.2 | 1.14 ± 0.03 |
| thaumatin | – | 0.9 | 0.61 ± 0.01 |
| thaumatin (protein, Eight disulfides, sweet-tasting plant protein, E957) ATFEIVNRCSYTVWAAASKGDAALDAGGRQLNSGESWTINVEPGTKGGKIWARTDCYFDDSGSGICKTGDCGGLLRCKRFGRPPTTLAEFSLNQYGKDYIDISNIKGFNVPMDFSPTTRGCRGVRCAADIVGQCPAKLKAPGGGCNDACTVFQTSEYCCTTGKCGPTEYSRFFKRLCPDAFSYVLDKPTTVTCPGSSNYRVTFCPTA | 6.6 ± 0.1 | – | – |
